In PMC11322497 (Frontiers in Pharmacology, 2024):

Tested on: high fat diet (HFD) rabbit model of metabolic-associated steatohepatitis (MASH)
Experiment: HFD rabbit study, prolonged 4-week treatment: liver histomorphology and immunohistochemistry
Format: in vivo, New Zealand White rabbits
Settings: weeks 9–12; for Ballooning score 0 (no ballooning), share of animals / Ballooning score 1 (few ballooned cells), share of animals / Ballooning score 2 (prominent ballooning), share of animals / Fibrosis (Ishak Score) 0, share of animals / Fibrosis (Ishak Score) 1, share of animals / Fibrosis (Ishak Score) 2, share of animals / Fibrosis (Ishak Score) 3, share of animals / Fibrosis (Ishak Score) 4, share of animals / Fibrosis (Ishak Score) 5, share of animals / Inflammation score 0 (no foci), share of animals / Inflammation score 1 (<2 foci), share of animals / Inflammation score 2 (2–4 foci), share of animals / Inflammation score 3 (> 4 foci), share of animals: n=7
Method: After 1 week (W) of RD, the animals (n = 44) were randomly assigned to the following groups (Table 1B): • Control rabbits continued to receive a RD for 12 weeks and were treated with vehicle for 5 days a week (days 1–5, p.o.) during the last 4 weeks before culling (RD + 4W Veh group); • Rabbits received a HFD for 8 weeks and were culled (HFD 8W group); • Rabbits received a HFD for 12 weeks and were treated with vehicle for 5 days a week (days 1–5, p.o.) during the last 4 weeks before culling (HFD+4W Veh group); • Rabbits received a HFD for 12 weeks and were treated with GB1211 (0.3 mg/kg) for 5 days a week (days 1–5, p.o.) during the last 4 weeks before culling (HFD + 4W 0.3 mg group); • Rabbits received a HFD for 12 weeks and were treated with GB1211 (1.0 mg/kg) for 5 days a week (days 1–5, p.o.) during the last 4 weeks before culling (HFD + 4W 1.0 mg group); • Rabbits received a HFD for 12 weeks and were treated with GB1211 (5.0 mg/kg) for 5 days a week (days 1–5, p.o.) during the last 4 weeks before culling (HFD + 4W 5.0 mg group).
Liver specimens were fixed in 10% buffered formalin (Sigma-Aldrich Corp., St. Louis, MO), paraffin embedded and sectioned at a thickness of 5 μm with a microtome. The slides were stained with hematoxylin and eosin (H&E; both Bio-Optica, Milan, Italy), following standard protocols for histological analysis, to evaluate the general morphology and tissue structure, and then analyzed to evaluate inflammation and […] using Giemsa and Masson’s trichrome staining, respectively. Briefly, deparaffinized and rehydrated sections were incubated with Giemsa (Bio-Optica) in distilled water at ratio 1:1 or with Masson’s trichrome (Bio-Optica), following the manufacturer’s instructions, as previously described ([Vignozzi et al., 2014]). To evaluate lipid accumulation, liver specimens were also cryosectioned at a thickness of 8 μm, fixed with 4% paraformaldehyde, treated for 2–5 min with isopropanol and stained with Oil Red O (Bio-Optica) for 20 min, following the manufacturer’s instructions.
In liver, collagen content evaluation for fibrosis grade and quantification was conducted by staining using Picrosirius Red Stain kit (Bio-Optica), as per manufacturer’s instructions. Briefly, deparaffinized and rehydrated sections were incubated with the staining solution for 50 min, rinsed with the appropriate reagents and with distilled water, dehydrated through ascending alcohols and xylene, and mounted, as previously described ([Comeglio et al., 2017]).
The expression of RAM11, galectin-3, and vimentin was evaluated by immunohistochemical analysis on 5 μm thick paraffin embedded liver sections. Briefly, deparaffinized and rehydrated sections were incubated overnight at 4°C with mouse monoclonal anti-RAM11 (1:80; Dako, Carpenteria, CA), mouse monoclonal anti-galectin-3 (1:100; Abcam, Cambridge, United Kingdom) or mouse monoclonal anti-vimentin (1:800; Santa Cruz Biotechnology, Dallas, TX) antibodies, followed by biotinylated anti-mouse secondary antibody (Millipore, Burlington, MA) and streptavidin-peroxidase complex (Millipore). The reaction product was developed with 3′,3′-diaminobenzidine tetrahydrochloride as chromogen (Merck KgaA, Darmstadt, Germany). Negative controls were performed avoiding primary antibody. Percentage of the sampled area for galectin-3 and vimentin staining was obtained on ×200 and ×40 original magnification slides, respectively, using ImageJ software on five fields for each slide. Semi-quantitative staining of percentage of the sampled area for Picrosirius Red, Oil Red O, galectin-3 and vimentin was obtained using open source Java-based ImageJ software (Fiji bundle, https://imagej.net/). All slides were evaluated blindly and photographed using a Nikon Microphot-FXA microscope (Nikon, Tokyo, Japan).

## OC[C@H]1O[C@H](Sc2cncc(Br)c2)[C@H](O)[C@@H](n2cc(-c3cc(F)c(F)c(F)c3)nn2)[C@H]1O [selvigaltin]
HFD rabbits, 0.3 mg and 5.0 mg dosages
  Picrosirius Red percentage of fibrosis area: only partially counteracted
HFD rabbits, 0.3 mg/kg p.o.
  Ballooning score 0 (no ballooning), share of animals: 0.0%
  Ballooning score 1 (few ballooned cells), share of animals: 42.9%
  Ballooning score 2 (prominent ballooning), share of animals: 57.1%
  Fibrosis (Ishak Score) 0, share of animals: 0.0%
  Fibrosis (Ishak Score) 1, share of animals: 14.3%
  Fibrosis (Ishak Score) 2, share of animals: 0.0%
  Fibrosis (Ishak Score) 3, share of animals: 57.1%
  Fibrosis (Ishak Score) 4, share of animals: 28.6%
  Fibrosis (Ishak Score) 5, share of animals: 0.0%
  Inflammation score 0 (no foci), share of animals: 14.3%
  Inflammation score 1 (<2 foci), share of animals: 42.8%
  Inflammation score 2 (2–4 foci), share of animals: 42.8%
  Inflammation score 3 (> 4 foci), share of animals: 0.0%
HFD rabbits, 1.0 mg/kg p.o.
  Ballooning score 0 (no ballooning), share of animals: 0.0%
  Ballooning score 1 (few ballooned cells), share of animals: 85.7%
  Ballooning score 2 (prominent ballooning), share of animals: 14.3%
  Fibrosis (Ishak Score) 0, share of animals: 0.0%
  Fibrosis (Ishak Score) 1, share of animals: 0.0%
  Fibrosis (Ishak Score) 2, share of animals: 85.7%
  Fibrosis (Ishak Score) 3, share of animals: 14.3%
  Fibrosis (Ishak Score) 4, share of animals: 0.0%
  Fibrosis (Ishak Score) 5, share of animals: 0.0%
  Inflammation score 0 (no foci), share of animals: 14.3%
  Inflammation score 1 (<2 foci), share of animals: 71.4%
  Inflammation score 2 (2–4 foci), share of animals: 14.3%
  Inflammation score 3 (> 4 foci), share of animals: 0.0%
HFD rabbits, 1.0 mg/kg, not significantly different from controls
  Liver steatosis (Oil Red O staining): mild beneficial effect
HFD rabbits, 1.0 mg/kg, p < 0.05 vs. HFD + Veh
  Picrosirius Red percentage of fibrosis area: normalized
HFD rabbits, 1.0 mg/kg, p = 0.072 vs. HFD + Veh
  Vimentin positivity in liver: borderline reduction
HFD rabbits, 5.0 mg/kg p.o.
  Ballooning score 0 (no ballooning), share of animals: 0.0%
  Ballooning score 1 (few ballooned cells), share of animals: 57.1%
  Ballooning score 2 (prominent ballooning), share of animals: 42.9%
  Fibrosis (Ishak Score) 0, share of animals: 0.0%
  Fibrosis (Ishak Score) 1, share of animals: 0.0%
  Fibrosis (Ishak Score) 2, share of animals: 42.8%
  Fibrosis (Ishak Score) 3, share of animals: 42.8%
  Fibrosis (Ishak Score) 4, share of animals: 14.3%
  Fibrosis (Ishak Score) 5, share of animals: 0.0%
  Inflammation score 0 (no foci), share of animals: 0.0%
  Inflammation score 1 (<2 foci), share of animals: 100.0%
  Inflammation score 2 (2–4 foci), share of animals: 0.0%
  Inflammation score 3 (> 4 foci), share of animals: 0.0%
HFD rabbits, 0.3, 1.0, 5.0 mg/kg
  Liver steatosis (Oil Red O staining): without significant differences among HFD groups
HFD rabbits, all selvigaltin treatments (0.3, 1.0, 5.0 mg/kg)
  Galectin-3 immunohistochemical positivity in liver: only partially abated
